Data: PubChem BioAssay (NCI)
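Five concentrations, 48 hours, 96-well plates. Abbreviation: GI50, concentration required for 50% inhibition of growth. The concentration for full growth arrest is given as TGI.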

How the values were obtained:
Test in all cases: NCI-60 cell line screen, 48 h
[1] = tested on: KM12 colon
[2] = tested on: CCRF-CEM leukemia
[3] = tested on: A498 renal
[4] = tested on: LOX IMVI melanoma
[5] = tested on: IGROV1 ovarian
[6] = tested on: UO-31 renal
[7] = tested on: DU-145 prostate
[8] = tested on: MDA-N
[9] = tested on: MDA-MB-231 breast
[10] = tested on: T-47D breast
[11] = tested on: M14 melanoma

Row | SMILES | TGI [1] [µM] | TGI [2] [µM] | TGI [3] [µM] | TGI [4] [µM] | TGI [5] [µM] | TGI [6] [µM] | TGI [7] [µM] | TGI [8] [µM] | TGI [9] [µM] | TGI [10] [µM] | TGI [11] [µM] | GI50 [7] [µM] | GI50 [9] [µM] | GI50 [6] [µM] | GI50 [11] [µM]
1 | Cc1ccc2nc3c(C(=O)NCCN(C)C)cccc3cc2c1 | 12.6 | 5.28 | 3.4 | 6.4 | 6.5 | 2.96 | – | – | – | – | – | – | – | – | –
2 | COc1ccc(C2CCc3nc4nc(N)nc(N)c4cc3C2)cc1 (stereo unspecified) | > 100 | – | 77.1 | 30 | 37.9 | – | > 100 | > 100 | 42 | 44.7 | > 100 | – | – | – | –
3 | CSc1ccc2c(c1)c(CCN)c(C)n2Cc1ccc(Cl)c(Cl)c1 | – | – | – | – | – | 3.01 | 3.21 | – | 3.39 | – | 3.22 | 1.73 | 1.69 | 1.59 | 1.69
4 | CCCS(=O)(=O)O | > 100 | > 100 | > 100 | > 100 | > 100 | > 100 | > 100 | – | > 100 | > 100 | > 100 | – | – | – | –
5 | NC(=O)c1cnc2sc3ccccc3n2c1=O | > 100 | > 100 | – | > 100 | > 100 | > 100 | > 100 | > 100 | > 100 | > 100 | > 100 | – | – | – | –
6 | CN(c1c(Cl)cccc1Cl)S(=O)(=O)c1ccccc1[N+](=O)[O-] | > 100 | – | – | > 100 | > 100 | > 100 | > 100 | > 100 | – | > 100 | > 100 | – | – | – | –
7 | CN1CCc2c(sc3nc(Nc4ccccc4)n(N)c(=O)c23)C1 | > 100 | > 100 | > 100 | – | > 100 | > 100 | > 100 | > 100 | > 100 | > 100 | 88 | – | – | – | –
8 | O=C(NC(=O)c1cn(CCN2CCNCC2)c(=O)[nH]c1=O)OCc1ccccc1 | > 100 | > 100 | – | > 100 | – | – | – | – | – | – | > 100 | – | – | – | –
9 | C#CCNC(=O)CCC(N)C(=O)O (stereo unspecified) | > 100 | > 100 | > 100 | > 100 | > 100 | > 100 | – | – | – | – | – | – | – | – | –
10 | CSC1=N/C(=C\c2cccs2)C(=O)N1CN1CCOCC1 | > 100 | > 100 | > 100 | > 100 | > 100 | > 100 | > 100 | > 100 | > 100 | – | > 100 | – | – | – | –
11 | COc1ccc(-c2cc(-c3ccccc3)n(C3OC(COC(C)=O)C(OC(C)=O)C(OC(C)=O)C3OC(C)=O)c(=S)c2C#N)cc1 (stereo unspecified) | 44.7 | – | – | > 100 | 32 | 21.3 | 23.9 | 25.5 | 16.4 | 25.7 | 20.5 | – | – | – | –
12 | O=[N+]([O-])c1cc2n[nH]nc2c2nonc12 | > 100 | 59.9 | – | > 100 | > 100 | 38.6 | > 100 | 80.5 | > 100 | > 100 | 47.4 | – | – | – | –
13 | O=C(ON=c1c2ccccc2ccc2ccccc12)c1cc([N+](=O)[O-])cc([N+](=O)[O-])c1 | > 100 | 94 | – | > 100 | > 100 | > 100 | > 100 | > 100 | > 100 | – | > 100 | – | – | – | –
14 | C=C1C(=O)OC2/C=C(\C)CC/C=C(/C)CC(OC(=O)/C(=C/CO)CO)C12 (stereo unspecified) | > 100 | > 100 | – | 81.5 | > 100 | 33.8 | 33.1 | 47.2 | – | – | 39 | – | – | – | –
15 | COC1/C=C\C=C(/C)C(=O)NC2=CC(=O)C=C(C2=O)C(OC)C(C)CC(OC)C(OC)C(C)/C=C(/C)C1OC(N)=O (stereo unspecified) | 20.1 | 1.85 | 28.4 | 13.8 | 26 | 30 | – | – | – | – | – | – | – | – | –
16 | O=C1CCc2c3c(c4c([nH]c5ccccc54)c2CC1)C(=O)NC3=O | 18.4 | > 100 | 13.5 | 21 | 13.7 | 14.7 | 42.9 | – | > 100 | 6.01 | 44.6 | – | – | – | –
17 | Nc1[nH]c(=O)nc2sc3c(c12)CCCC3 | > 100 | > 100 | – | – | > 100 | > 100 | > 100 | – | > 100 | > 100 | > 100 | – | – | – | –
18 | CN(C)C(=S)Nc1nnc(NC23CC4CC(CC(C4)C2)C3)s1 | 46 | 84.9 | 37.3 | 33.8 | 72.8 | 25.2 | – | – | – | – | 29.7 | – | – | – | –
19 | Cc1nn2c(N)cc(=O)nc2nc1/C=C/c1ccc(N(C)C)cc1 | > 100 | 2.41 | – | 22 | > 100 | > 100 | > 100 | > 100 | > 100 | > 100 | > 100 | – | – | – | –
20 | NC(CCCCCP(=O)(O)O)C(=O)O (stereo unspecified) | > 100 | > 100 | – | > 100 | > 100 | > 100 | > 100 | > 100 | > 100 | > 100 | > 100 | – | – | – | –
21 | COC1/C=C/C(C)C(OC)CC(O)/C=C/C(C)C(C(C)C(OC)C(C)CCC(=O)C(C)C(C/C=C/N(C)C=O)OC)OC(=O)/C=C/C=C(\C)CC(OC)C(OC)C2=CC(=O)O[C@@H](C(C)C(OC)C1)[C@H]2O (stereo partly specified) | – | – | 0.0614 | 0.025 | – | 0.0761 | – | 0.159 | 0.0835 | 0.151 | 0.0849 | – | – | – | –
22 | CN(Cc1cnc2nc(N)nc(N)c2n1)c1ccc(C(=O)NC(CCS(=O)(=O)O)C(=O)O)cc1 (stereo unspecified) | > 100 | 0.739 | > 100 | > 100 | > 100 | > 100 | – | > 100 | > 100 | > 100 | > 100 | – | – | – | –
23 | NCCCNCCSSCc1ccccc1CSSCCNCCCN | > 100 | 29.8 | > 100 | > 100 | > 100 | > 100 | – | – | – | – | > 100 | – | – | – | –
24 | COCCc1c(C)c(C#N)c2n(C)c3ccccc3n2c1=O | > 10 | – | > 10 | > 10 | > 10 | – | > 10 | > 10 | > 10 | > 10 | > 10 | – | – | – | –
